How the values were obtained:
striatum of YAC128 mice [1] = experiment: Histology and immunohistochemistry of the striatum of YAC128 mice (Nissl, H3K9me3, DARPP-32, calbindin, DAPI, SUV39H1); type: in vivo, mouse
Protocol: (§1) YAC128 mice were bred with females from their background strain (B6CBAFI/J), and offspring were genotyped using PCR as previously described. All mice were weighed at 3 weeks of age and equally distributed according to weight and percentage within each cohort. […] The biochemical and behavioural/neuropathological symptoms of mice were determined after 4 weeks of drug administration. These procedures were performed in accordance with Guide for the Care and Use of Laboratory Animals guidelines. The animal protocol was approved by IACUC (Institutional Animal Care and Use Committee) in Hanyang University, Ansan, Republic of Korea.
(§2) Immunofluorescence staining and confocal microscopy was used to determine the trimethylated-histone H3 (Lys9) (H3K9me3) (Millipore, Billerica, MA) (1:1000). The procedures were performed as previously described. The specimens were incubated for 1 h with Alexa Fluor 594 goat anti-rabbit antibody (abcam, Cambridge, UK; 1:400) after incubation of the primary antibody. Images were analysed using an A1 Nikon confocal laser scanning microscope (Nikon, Tokyo, Japan).
DARPP-32 is a dopamine- and cAMP-regulated neuronal phosphoprotein, which plays an important role in dopamine neurotransmission. Its expression is severely impaired in the striatum of YAC128 mice compared with that of WT mice.
White nodes are interacting genes with the seed genes identified by the network analysis algorithm of IPA. The network represented dense connections between the epigenome associated with chromatin modification (such as Suv39h1, Mecp2, KDM5c, etc.), transcription regulation (such as Elk1, Foxp4, Hoxa6, Dhx9, etc.), metabolic process (such as Acsl4, Fbp2, Nat2, etc.), and signal transduction pathways (such as Cnksr2, Dusp9, Rab9, etc.) (Figure 8(d)). Especially, SUV39H1, a histone H3K9 methyltransferase, was closely associated with signalling pathways and other modules (Figure 8(d)). We further verified that SUV39H1 immunoreactivity was markedly elevated in YAC128 mice (Figure 8(e)).

YAC128 mice = experiment: Toxicity on administration to YAC128 mice; type: in vivo; details: HD transgenic (YAC128) mice
Protocol: as §1

Q111 cells = experiment: FRET-based histone H3K9 methylation biosensor live cell imaging
Protocol: Fluorescence resonance energy transfer (FRET)-based histone H3K9 methylation biosensor was previously described. In brief, H3K9 biosensor is composed of a methyl-lysine binding domain of HP1 protein and a H3 tail peptide containing lysine9 between ECFP and YPet, and the NLS sequences were added in the C-terminal for the nucleus localisation of the biosensor. For the image acquisition, Q7 or Q111 cells were cultured on cover-glass-bottom dishes and the H3K9 biosensor was transfected into the cells using Lipofectamine 2000 (Invitrogen, Carlsbad, CA) according to the manufacturer’s protocols. Images were collected by a Nikon Ti-E inverted microscope with 420DF20 excitation filter, 450DRLP dichroic mirror, and two emission filters (475DF40 for ECFP and 535DF25 for YPet) controlled by a filter changer. Image analysis was performed using NIS element-AR software. Nucleus regions were selected as the regions of interests and the emission ratio of ECFP and YPet was calculated after background subtraction. The colour of each pixel was determined by the ECFP/YPet ratio value.
(§3) Moreover, the promoter assay was carried out.

SETDB1 enzyme = SETDB1 enzyme (Homo sapiens, UniProt Q15047); experiment: biochemical
Protocol: SETDB1 enzyme activity was analysed using commercially available SETBD1 chemiluminescent assay kit (BPS Bioscience, San Diego, CA, #51056) according to the manufacturer’s instructions. All analyses were performed in duplicates and all reagents used are supplied in the kit. […] Total 50 µL mixture of histone methylation transfer buffer (50 mM Tris–HCl, pH 9.0, 1 mM phenylmethylsulfonyl fluoride, and 0.5 mM dithiothreitol) containing 20 µM SAM, each concentration of inhibitors and 1.25 ng/µL SETDB1 enzyme was added to each well of a 96-well plate. The wells were pre-coated with histone H3 peptide substrate. Reactions were allowed to proceed for 1 h 30 min at room temperature. Methylated K9 residue of H3 peptide was detected with anti-methylated H3K9 primary antibody and HRP-conjugated secondary antibody. Chemiluminescence resulting from the reaction between the HRP-conjugated secondary antibody and the added HRP substrate was measured using a SpectraMax M2 plate reader (Molecular Devices, Sunnyvale, CA).
The inhibitory activity at each concentration was recorded by detecting chemiluminescence signal after treatment of H3K9 antibody followed by addition of the HRP substrate.

[2] = test system: STHdhQ7/7 (wild type) cells; experiment: Cell viability MTT assay; type: cell-based; details: 24 h, concentration range 1–100 µM
Protocol: Cell viability was quantified using MTT assay (Sigma, St. Louis, MO, M2128). In brief, cells were cultured in each well of 96-well plates with varying concentrations of compounds for 24 h. Following incubation of cells in each well with MTT (0.5 mg/ml) for 4 h, the culture supernatant was discarded. Cells were washed with PBS three times, and the insoluble formazan product dissolved in DMSO. The optical density (OD) of each culture well was measured using as ELISA reader at 570 nm. The OD570 in control cells was taken as 100% viability.
Next, we evaluated the inhibitory activity of our compound against SETDB1 enzyme by comparing with a well-known methyltransferase inhibitor […] using chemo-luminescence assay (Figure S1a).

SETDB1/ESET promoter = SETDB1/ESET promoter assay; type: cell-based; details: neuronal cells transfected with SETDB1 promoter construct, 0 to 20 µM
Protocol: STHdh^Q7/Q7 (wild type) and STHdh^Q111/Q111 (HD knock-in striatal cell line expresses mutant huntingtin at endogenous level) were generously provided from Dr. Marcy MacDonald (Harvard Medical School, Boston, MA)[35]. The SETDB1/ESET promoter assay was performed as previously described[24]^,[28]. Briefly, 2.5 × 10^5 cells were plated onto 48-well cell culture plates 24 h prior to the transfection of 200 ng of ETDB1/ESET promoter construct. DMRIE-C reagent (Invitrogen, Carlsbad, CA) was used as a transfection reagent and transfections were performed according to the manufacturer’s protocol. Nogalamycin and distamycin were purchased from Sigma-Aldrich (St. Louis, MO).
as §3

[3] = test system: HD (Q111/Q111) striatal cells; experiment: Confocal microscopy of H3K9me3 immunoreactivity in HD cells; type: cell-based
Protocol: as §2, §3

striatum of YAC128 mice [4] = experiment: Acid histone extraction and Western blot of H3K9 methylation in the striatum of YAC128 mice; type: in vivo, mouse; details: YAC128 mice vs vehicle-treated YAC128 mice
Protocol: Cells were homogenised with Dounce homogeniser in […] of phosphate-buffered saline containing 0.4 mM sodium butyrate, 5% Triton X-100, 3 mM DTT, 1 mM sodium orthovanadate, 5 mM sodium fluoride, 3 mM PMSF, 3 mM DTT, 0.5 mg/ml leupeptin, and 10 mg/ml aprotinin as previously described. The nuclear pellets were collected and washed twice with the above-described 5% Triton buffer. Histones were extracted by solubilising in […] of 0.2 M HCl on a shaker for 2 h. After neutralising the pH of the acid-extracted solution containing the histone pool with ammonium acetate, the protein content was quantified. […] After releasing the vacuum, the nitrocellulose membrane was removed and washed twice with TBS-T for 5 min. Then, the nitrocellulose membrane was blocked with 5% milk/TBS-T for 30 min and subsequently incubated with primary antibody in 5% milk/TBS-T for 24 h at cold room. The nitrocellulose membrane was washed twice with TBS-T for 5 min and incubated with secondary antibody in 1% milk (15 ml) for one hour at room temperature. […]
YAC128 mice were bred with females from their background strain (B6CBAFI/J), and offspring were genotyped using PCR as previously described. […] The biochemical and behavioural/neuropathological symptoms of mice were determined after 4 weeks of drug administration. […]

## C=CCOc1cccc2nc(N3CCCC3)ccc12 [APQ, 5-allyloxy-2-(pyrrolidin-1-yl)quinoline]
Striatum of YAC128 mice [1]
  DARPP-32 expression in the striatum: considerably improved
  immunoreactive intensity of calbindin stained neurons: increased
  nuclei size of medium spiny neurons (DAPI): restores
Striatum of YAC128 mice [1]; comparable to the level of WT controls
  H3K9me3 immunoreactivity in striatal neurons: significantly reduced
Striatum of YAC128 mice [1]; similar to the level in WT mice
  level of SUV39H1 (immunoreactivity) in striatal neurons: significantly reduced
Striatum of YAC128 mice [1]; striatum
  neuronal atrophy / size of striatal medium spiny neurons (Nissl staining): significantly restored
YAC128 mice
  toxicity: minimal toxicity
Q111 cells
  FRET/ECFP ratios of H3K9 methylation: effectively modulates
SETDB1 enzyme
  IC50: 65 µM
[2]
  cytotoxicity (cell viability, MTT): did not show any cytotoxicity
SETDB1/ESET promoter
  transcriptional activity of SETDB1 (promoter assay): represses the transcriptional activity of SETDB1 in a dose-dependent manner
[3]
  H3K9me3 immunoreactivity: considerably decreased
Striatum of YAC128 mice [4]
  H3K9me3, H3K9me1 and H3K9me2 levels in the striatum (Western blot): selectively decreased H3K9me3 levels but not H3K9me1 or H3K9me2 levels

Source: PMC8008885 (Journal of Enzyme Inhibition and Medicinal Chemistry, 2021)
